According to article PMC6381099, “Hydroxyoleoside-type seco-iridoids from Symplocos cochinchinensis and their insulin mimetic activity” (Scientific Reports, 2019):

Target: T1, PTP1B (protein tyrosine phosphatase 1B) (Homo sapiens, UniProt P18031)
T1 construct: gene PTPN1
T1 sequence (P18031 1-435): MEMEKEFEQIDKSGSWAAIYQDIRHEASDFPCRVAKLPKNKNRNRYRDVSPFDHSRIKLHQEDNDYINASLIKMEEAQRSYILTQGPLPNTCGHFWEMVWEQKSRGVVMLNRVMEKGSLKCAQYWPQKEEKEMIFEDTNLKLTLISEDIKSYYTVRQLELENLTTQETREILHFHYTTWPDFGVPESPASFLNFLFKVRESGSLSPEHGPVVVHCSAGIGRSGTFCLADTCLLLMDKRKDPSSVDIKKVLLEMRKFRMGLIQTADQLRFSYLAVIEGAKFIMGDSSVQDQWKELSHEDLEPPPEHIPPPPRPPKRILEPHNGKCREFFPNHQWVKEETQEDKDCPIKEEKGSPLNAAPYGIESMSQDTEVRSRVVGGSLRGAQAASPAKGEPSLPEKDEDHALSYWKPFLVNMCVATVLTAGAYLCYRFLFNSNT
Test: p-NPP hydrolysis assay with recombinant human PTP1B; Lineweaver-Burk kinetics
Type: biochemical

IC50: 19.5 ± 0.76 µM
Compound: O=C(O)C[C@@H]1C(C(=O)O)=CO[C@@H](O[C@@H]2O[C@H](CO)[C@@H](O)[C@H](O)[C@H]2O)C1=CCOC(=O)/C=C/c1ccc(O)cc1 [compound 3, Symplocochinside C]
